# From patent publication US8853258B2, “C-linked hydroxamic acid derivatives useful as antibacterial agents” (Pfizer Inc., priority 2009, dated 2014)
# pIC50: −log10 of the molar value. Where two headings read alike, the source gives them in different places.
# What was measured:
# [1] = test system: Acinetobacter baumanii/haemolyticus: Multidrug-resistant clinical isolate (AB-3167); assay: MIC determination (CLSI), AB-3167; format: cell-based; conditions: for MIC: Acinetobacter baumannii
# Summary of the method: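 Multidrug-resistant clinical isolate AB-3167 (A. baumannii/haemolyticus) tested for minimum inhibitory concentration following CLSI dilution susceptibility standards M7-A7 and M100-S18.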
# [2] = molecular target: Pseudomonas aeruginosa LpxC enzyme (Pseudomonas aeruginosa (strain ATCC 15692 / DSM 22644 / CIP 104116 / JCM 14847 / LMG 12228 / 1C / PRS 101 / PAO1), UniProt P47205); assay: IC50 Assay, LpxC Enzyme from P. aeruginosa (PA LpxC Enzyme IC50); format: biochemical
# Summary of the method: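 Product formation quantified by RapidFire HTMS after a 1 h enzyme reaction quenched with 1N HCl.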
# [3] = test system: Klebsiella pneumoniae: Ciprofloxacin-resistant isolate, ESBL, clinical isolate (KP-3700); assay: MIC determination (CLSI), KP-3700; format: cell-based
# Summary of the method: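 Strain KP-3700, a clinical isolate producing extended-spectrum β-lactamases and resistant to ciprofloxacin, was tested. Minimum inhibitory concentrations determined via CLSI dilution methodology (M7-A7; M100-S18).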
# [4] = test system: Pseudomonas aeruginosa UI-18: Wild-type (PA-7); assay: MIC determination (CLSI), PA-7; format: cell-based; conditions: for MIC: Pseudomonas aeruginosa
# Summary of the method: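 Wild-type P. aeruginosa UI-18 tested for minimum inhibitory concentration. Broth/agar dilution following CLSI standards (M7-A7, M100-S18).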
# [5] = test system: Escherichia coli EC-1: VOGEL, mouse virulent; assay: MIC determination (CLSI), EC-1; format: cell-based; conditions: for MIC: Escherichia coli
# Summary of the method: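 E. coli Vogel, a mouse-virulent strain (EC-1), was tested. MICs were set by dilution susceptibility testing per CLSI standards M7-A7/M100-S18.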
# [6] = Acinetobacter baumanii/haemolyticus multidrug-resistant clinical isolate AB-3167
# [7] = P. aeruginosa LpxC enzyme, read-out: PA LpxC enzyeme IC50
# [8] = Pseudomonas aeruginosa UI-18 wild-type PA-7
# [9] = Escherichia coli EC-1 VOGEL, mouse virulent
# [10] = Acinetobacter baumanii/haemolyticus AB-3167
# [11] = Pseudomonas aeruginosa UI-18 (PA-7)
# [12] = Table 1, MIC, read-out: AB-3167 (MIC)
# [13] = Table 1, read-out: PA LpxC enzyeme IC50
# [14] = Table 1, MIC, read-out: PA-7 (MIC)
# [15] = Table 3, read-out: PA LpxC enzyeme IC^50
Structure (SMILES),"AB-3167 MIC [1, 6]","pIC50 [2, 7]",KP-3700 MIC [3],"PA-7 MIC [4, 8]","EC-1 MIC [5, 9]",also measured
CC(CCc1ccc(-c2ccc(F)c(Cl)c2)cc1)(C(=O)NO)S(C)(=O)=O (stereo not shown) [Example 104],2 µg/mL,9.90,2 µg/mL,1 µg/mL,0.5 µg/mL,
C[C@@](CCc1ccc(-c2ccc(OCC(=O)N3CC(O)C3)cc2)cc1)(C(=O)NO)S(C)(=O)=O [Example 223],,9.29,32 µg/mL,,,"AB-3167 MIC [1, 10]: ≧64 mg/L; PA-7 MIC [4, 11]: 8 µg/mL; EC-1 MIC ([5]; Escherichia coli EC-1): 16 µg/mL"
"Cc1cc(-c2ccccc2)ccc1CCC(C)(C(=O)NO)S(C)(=O)=O (stereo not shown) [Example 1, N-Hydroxy-2-methyl-4-(3-methylbiphenyl-4-yl)-2(methylsulfonyl)butanamide]",,,8 µg/mL,,,"MIC [1, 12]: 16 µg/mL; pIC50 [2, 13]: 8.77; MIC [4, 14]: 4 µg/mL; MIC ([5]; read-out: EC-1: (MIC)): 2 µg/mL"
CC(CCc1ccc(COc2cccc(F)c2)cc1)(C(=O)NO)S(C)(=O)=O (stereo not shown) [Example 229],,8.49,32 µg/mL,,,"AB-3167 MIC [1, 10]: 16 µg/mL; PA-7 MIC [4, 11]: 8 µg/mL; EC-1 MIC ([5]; Escherichia coli EC-1): 8 µg/mL"
"Cc1oc(-c2ccccc2F)nc1COc1ccc(CCC(C)(C(=O)NO)S(C)(=O)=O)cc1 (stereo not shown) [Example 251, 4-(4-{[2-(2-fluorophenyl)-5-methyl-1,3-oxazol-4-yl]methoxy}phenyl)-N-hydroxy-2-methyl-2-(methylsulfonyl)butanamide]",,,≧64 mg/L,,,"MIC ([1]; Table 3, read-out: AB-3167 MIC): ≥ 64 µg/mL; pIC50 [2, 15]: 7.67; MIC ([4]; Table 3, read-out: PA-7 MIC): ≥ 64 µg/mL; MIC ([5]; read-out: EC-1 MIC): 32 µg/mL"
Cc1cc(F)ccc1-c1ccc(CCC(C)(C(=O)NO)S(C)(=O)=O)cc1 (stereo not shown) [Example 98],32 µg/mL,8.91,16 µg/mL,2 µg/mL,4 µg/mL,
C[C@@](CCc1ccc(-c2ccc(C(=O)N3CCC(O)CC3)cc2)cc1)(C(=O)NO)S(C)(=O)=O [Example 192],≧64 mg/L,8.47,≧64 mg/L,16 µg/mL,≧64 mg/L,
Cc1cc(CCC(C)(C(=O)NO)S(C)(=O)=O)ccc1-c1ccc(F)cc1 (stereo not shown) [Example 160],16 µg/mL,8.60,8 µg/mL,4 µg/mL,2 µg/mL,
Cc1cccc(-c2ccc(CCC(C)(C(=O)NO)S(C)(=O)=O)cc2)c1C (stereo not shown) [Example 78],≧64 mg/L,9.35,16 µg/mL,2 µg/mL,2 µg/mL,
CC(CCc1ccc(-c2ccc(C#N)cc2F)cc1)(C(=O)NO)S(C)(=O)=O (stereo not shown) [Example 128],≧64 mg/L,9.63,8 µg/mL,0.5 µg/mL,0.5 µg/mL,
COc1ccc(-c2ccc(CCC(C)(C(=O)NO)S(C)(=O)=O)cn2)c(F)c1 (stereo not shown) [Example 219],,8.92,16 µg/mL,,,"AB-3167 MIC [1, 10]: ≧64 mg/L; PA-7 MIC [4, 11]: 8 µg/mL; EC-1 MIC ([5]; Escherichia coli EC-1): 4 µg/mL"
COc1ccc(-c2ccc(CC[C@](C)(C(=O)NO)S(C)(=O)=O)cc2)cn1 [Example 212],,9.63,16 µg/mL,,,"AB-3167 MIC [1, 10]: ≧64 mg/L; PA-7 MIC [4, 11]: 1 µg/mL; EC-1 MIC ([5]; Escherichia coli EC-1): 4 µg/mL"
CC(CCc1ccc(-c2ccc(N3CCNCC3)cc2)cc1)(C(=O)NO)S(C)(=O)=O (stereo not shown) [Example 185],≧64 mg/L,8.21,≧64 mg/L,8 µg/mL,16 µg/mL,
C[C@@](CCc1ccc(-c2ccc3c(c2)CNC3=O)cc1)(C(=O)NO)S(C)(=O)=O [Example 199],≧64 mg/L,9.58,32 µg/mL,2 µg/mL,8 µg/mL,
CC(CCc1ccc(-c2cccc(Cl)c2)cc1)(C(=O)NO)S(C)(=O)=O (stereo not shown) [Example 88],4 µg/mL,9.44,4 µg/mL,1 µg/mL,1 µg/mL,
CC(=O)c1ccc(-c2ccc(CCC(C)(C(=O)NO)S(C)(=O)=O)cc2)cc1F (stereo not shown) [Example 184],32 µg/mL,9.81,2 µg/mL,0.5 µg/mL,4 µg/mL,
C[C@@](CCc1ccc(-c2cc3ccccc3[nH]2)cc1)(C(=O)NO)S(C)(=O)=O [Example 218],,10.47,2 µg/mL,,,"AB-3167 MIC [1, 10]: 32 µg/mL; PA-7 MIC [4, 11]: 0.5 µg/mL; EC-1 MIC ([5]; Escherichia coli EC-1): 0.5 µg/mL"
CC(=O)c1cc(-c2ccc(CCC(C)(C(=O)NO)S(C)(=O)=O)cc2)ccc1O (stereo not shown) [Example 180],16 µg/mL,9.08,16 µg/mL,8 µg/mL,4 µg/mL,
"CC(CCc1ccc(OCC2CCOCC2)cc1)(C(=O)NO)S(C)(=O)=O (stereo not shown) [Example 261, N-hydroxy-2-methyl-2-(methylsulfonyl)-4-[4-(tetrahydro-2H-pyran-4-ylmethoxy)phenyl]butanamide]",,,≧64 mg/L,,,"MIC ([1]; Table 3, read-out: AB-3167 MIC): ≥ 64 µg/mL; pIC50 [2, 15]: 8.31; MIC ([4]; Table 3, read-out: PA-7 MIC): 32 µg/mL; MIC ([5]; read-out: EC-1 MIC): ≥ 64 µg/mL"
"CC(CCc1ccc(OCc2ccc(F)cc2F)cc1)(C(=O)NO)S(C)(=O)=O (stereo not shown) [Example 294, 4-{4-[(2,4-difluorobenzyl)oxy]phenyl}-N-hydroxy-2-methyl-2-(methylsulfonyl)butanamide]",,,16 µg/mL,,,"MIC ([1]; Table 3, read-out: AB-3167 MIC): 32 µg/mL; pIC50 [2, 15]: 9.00; MIC ([4]; Table 3, read-out: PA-7 MIC): 4 µg/mL; MIC ([5]; read-out: EC-1 MIC): 4 µg/mL"
"CC(CCc1ccc(-c2ccc(F)cc2)c(O)c1)(C(=O)NO)S(C)(=O)=O (stereo not shown) [Example 21, 4-(4′-Fluoro-2-hydroxybiphenyl-4-yl)-N-hydroxy-2-methyl-2-(methylsulfonyl)butanamide]",,,≧64 mg/L,,,"MIC [1, 12]: ≥ 64 µg/mL; pIC50 [2, 13]: 7.81; MIC [4, 14]: 16 µg/mL; MIC ([5]; read-out: EC-1: (MIC)): 16 µg/mL"
"Cc1ccc(Cc2noc(COc3ccc(CCC(C)(C(=O)NO)S(C)(=O)=O)cc3)n2)cc1 (stereo not shown) [Example 283, N-hydroxy-2-methyl-4-(4-{[3-(4-methylbenzyl)-1,2,4-oxadiazol-5-yl]methoxy}phenyl)-2-(methylsulfonyl)butanamide]",,,≧64 mg/L,,,"MIC ([1]; Table 3, read-out: AB-3167 MIC): ≥ 64 µg/mL; pIC50 [2, 15]: 8.20; MIC ([4]; Table 3, read-out: PA-7 MIC): ≥ 64 µg/mL; MIC ([5]; read-out: EC-1 MIC): 16 µg/mL"
CC(CCc1ccc(-c2ccc3c(c2)CNC3)cc1)(C(=O)NO)S(C)(=O)=O (stereo not shown) [Example 173],≧64 mg/L,8.57,≧64 mg/L,16 µg/mL,≧64 mg/L,
"CC(=O)NC[C@@H]1CN(c2ccc(-c3ccc(CC[C@](C)(C(=O)NO)S(C)(=O)=O)cc3)c(F)c2)C(=O)O1 [Example 14, (2R)-4-{4′-[(5R)-5-(Acetamidomethyl)-2-oxo-1,3-oxazolidin-3-yl]-2′-fluorobiphenyl-4-yl}-N-hydroxy-2-methyl-2-(methylsulfonyl)butanamide]",,,≧64 mg/L,,,"MIC [1, 12]: ≥ 64 µg/mL; pIC50 [2, 13]: 8.83; MIC [4, 14]: 32 µg/mL; MIC ([5]; read-out: EC-1: (MIC)): 16 µg/mL"
CC(=O)c1ccc(-c2ccc(CCC(C)(C(=O)NO)S(C)(=O)=O)cc2)cc1 (stereo not shown) [Example 108],32 µg/mL,9.75,2 µg/mL,0.5 µg/mL,0.5 µg/mL,
C[C@@](CCc1ccc(-c2ccc(N)nc2)cc1)(C(=O)NO)S(C)(=O)=O [Example 204],,7.74,≧64 mg/L,,,"AB-3167 MIC [1, 10]: ≧64 mg/L; PA-7 MIC [4, 11]: 8 µg/mL; EC-1 MIC ([5]; Escherichia coli EC-1): ≧64 mg/L"
CC(CCc1ccc(C2=CCOCC2)cc1)(C(=O)NO)S(C)(=O)=O (stereo not shown) [Example 225],,8.73,≧64 mg/L,,,"AB-3167 MIC [1, 10]: ≧64 mg/L; PA-7 MIC [4, 11]: 4 µg/mL; EC-1 MIC ([5]; Escherichia coli EC-1): 32 µg/mL"
"CC(CCc1ccc(OCCC2CCOCC2)cc1)(C(=O)NO)S(C)(=O)=O (stereo not shown) [Example 281, N-hydroxy-2-methyl-2-(methylsulfonyl)-4-{4-[2-(tetrahydro-2H-pyran-4-yl)ethoxy]phenyl}butanamide]",,,≧64 mg/L,,,"MIC ([1]; Table 3, read-out: AB-3167 MIC): ≥ 64 µg/mL; pIC50 [2, 15]: 8.17; MIC ([4]; Table 3, read-out: PA-7 MIC): 32 µg/mL; MIC ([5]; read-out: EC-1 MIC): ≥ 64 µg/mL"
"CC(C)CCOc1ccc(CCC(C)(C(=O)NO)S(C)(=O)=O)cc1 (stereo not shown) [Example 292, N-hydroxy-2-methyl-4-[4-(3-methylbutoxy)phenyl]-2-(methylsulfonyl)butanamide]",,,≧64 mg/L,,,"MIC ([1]; Table 3, read-out: AB-3167 MIC): 16 µg/mL; pIC50 [2, 15]: 8.95; MIC ([4]; Table 3, read-out: PA-7 MIC): 8 µg/mL; MIC ([5]; read-out: EC-1 MIC): 16 µg/mL"
